Measurements published in ChEMBL document CHEMBL1127762, “Five-membered heterocyclic amines as potential anti-rheumatoid arthritis agents” (Bioorg Med Chem Lett, 1994).
Blank lines part the entries; values can stand above or below the compound they belong to.

Assays:
Rattus norvegicus [1] = assay: Improvement in joint mobility at 33 mg/kg p.o. in rat model of arthritis.; type: functional; conditions: route oral
[2] = Partition coefficient (logP); conditions: octanol/water
Rattus norvegicus [3] = assay: Percent reduction in paw volume (right primary lesion, days 0-8) by 33 mg/kg p.o. in rats.; type: functional; conditions: route oral
Rattus norvegicus [4] = assay: Percent reduction in paw volume (right primary lesion, days 9-18) by 33 mg/kg p.o. in rats.; type: functional; conditions: route oral
Rattus norvegicus [5] = assay: Percent reduction in paw volume ([…], days 9-18) by 33 mg/kg p.o. in rats.; type: functional; conditions: route oral
Rattus norvegicus [6] = assay: Antiarthritic activity by measuring percent reduction in paw volume in Sprague Dawley rat by peroral administration of 33 mg/kg; type: functional; conditions: route oral
Rattus norvegicus [7] = assay: Antiarthritic activity by measuring % reduction in paw volume in Sprague Dawley rat, peroral administration of 10 mg/kg, volume change in the uninjected paw([…]) measured from day 9 to day 18; type: functional; conditions: route oral

logP [2]: 0.66
Compound: Nc1ncns1
Reduction (Rattus norvegicus [1]): 69%
Reduction (Rattus norvegicus [3]): 45%
Reduction (Rattus norvegicus [4]): 59%
Reduction (Rattus norvegicus [5]): 106%

logP [2]: 1.78
Compound: CC(C)(C)c1nsc(N)n1
Reduction (Rattus norvegicus [1]): 28%
Reduction (Rattus norvegicus [3]): 16%
Reduction (Rattus norvegicus [4]): 30%
Reduction (Rattus norvegicus [5]): 45%

logP [2]: 1.77
Compound: Nc1nc(-c2cccs2)ns1
Reduction (Rattus norvegicus [1]): 7%
Reduction (Rattus norvegicus [3]): 6%
Reduction (Rattus norvegicus [4]): 25%
Reduction (Rattus norvegicus [5]): 43%

Compound: O=C(Nc1nc(-c2ccccc2)ns1)OCC(Cl)(Cl)Cl
Reduction (Rattus norvegicus [1]): 42%
Reduction (Rattus norvegicus [3]): 50%
Reduction (Rattus norvegicus [4]): 45%
Reduction (Rattus norvegicus [5]): 68%

Compound: CC(=O)Nc1nc(-c2cc(C(C)(C)C)c(O)c(C(C)(C)C)c2)no1
Reduction (Rattus norvegicus [1]): 75%
Reduction (Rattus norvegicus [3]): 80%
Reduction (Rattus norvegicus [4]): 66%
Reduction (Rattus norvegicus [5]): 79%

logP [2]: 0.08
Compound: Nc1nc(-c2ncccn2)ns1
Reduction (Rattus norvegicus [1]): 30%
Reduction (Rattus norvegicus [3]): 28%
Reduction (Rattus norvegicus [4]): 31%
Reduction (Rattus norvegicus [5]): 5%

Compound: Nc1nc(-c2ccccc2)ns1
Reduction (Rattus norvegicus [1]): 13%
Reduction (Rattus norvegicus [3]): 22%
Reduction (Rattus norvegicus [4]): 51%
Reduction (Rattus norvegicus [5]): 84%

logP [2]: 1.12
Compound: CCCc1nsc(N)n1
Reduction (Rattus norvegicus [1]): 47%
Reduction (Rattus norvegicus [3]): 13%
Reduction (Rattus norvegicus [4]): 40%
Reduction (Rattus norvegicus [5]): 54%

Compound: Nc1n[nH]c(-c2ccccn2)n1
Reduction (Rattus norvegicus [1]): 21%
Reduction (Rattus norvegicus [3]): 3%
Reduction (Rattus norvegicus [4]): 32%
Reduction (Rattus norvegicus [5]): 60%

logP [2]: 1.78
Compound: CC(C)(C)c1ccc(-c2nsc(N)n2)cc1
Reduction (Rattus norvegicus [1]): 18%
Reduction (Rattus norvegicus [3]): 27%
Reduction (Rattus norvegicus [5]): 6%
Reduction (Rattus norvegicus [6]): 2%

logP [2]: 2.05
Compound: Nc1nc(Cc2ccccc2)ns1
Reduction (Rattus norvegicus [1]): 36%
Reduction (Rattus norvegicus [3]): 28%
Reduction (Rattus norvegicus [4]): 42%
Reduction (Rattus norvegicus [5]): 77%

logP [2]: 0
Compound: Cc1nsc(N)n1
Reduction (Rattus norvegicus [1]): 84%
Reduction (Rattus norvegicus [3]): 38%
Reduction (Rattus norvegicus [4]): 50%
Reduction (Rattus norvegicus [5]): 66%

logP [2]: 1.72
Compound: Nc1nc(-c2ccncc2)ns1
Reduction (Rattus norvegicus [1]): 33%
Reduction (Rattus norvegicus [3]): 11%
Reduction (Rattus norvegicus [4]): 20%
Reduction (Rattus norvegicus [5]): 74%

Compound: Nc1nc[nH]n1 [AMITROLE]
Reduction (Rattus norvegicus [1]): 26%
Reduction (Rattus norvegicus [3]): 27
Reduction (Rattus norvegicus [4]): 46%
Reduction (Rattus norvegicus [5]): 57%

logP [2]: 1.05
Compound: Nc1nc(-c2ccccn2)ns1
Reduction (Rattus norvegicus [1]): 70%
Reduction (Rattus norvegicus [3]): 8%
Reduction (Rattus norvegicus [4]): 44%
Reduction (Rattus norvegicus [5]): 65%

Compound: C/C=C/C[C@@H](C)[C@@H](O)[C@H]1C(=O)N[C@@H](CC)C(=O)N(C)CC(=O)N(C)[C@@H](CC(C)C)C(=O)N[C@@H](C(C)C)C(=O)N(C)[C@@H](CC(C)C)C(=O)N[C@@H](C)C(=O)N[C@H](C)C(=O)N(C)[C@@H](CC(C)C)C(=O)N(C)[C@@H](CC(C)C)C(=O)N(C)[C@@H](C(C)C)C(=O)N1C [CYCLOSPORINE]
Reduction (Rattus norvegicus [3]): 51%
Reduction (Rattus norvegicus [7]): 77%

logP [2]: 2.83
Compound: Nc1nc(-c2ccc(Cl)cc2)ns1
Reduction (Rattus norvegicus [1]): 18%
Reduction (Rattus norvegicus [3]): 20%
Reduction (Rattus norvegicus [4]): 50%
Reduction (Rattus norvegicus [5]): 46%

logP [2]: 1.58
Compound: Nc1nc(-c2cccnc2)ns1
Reduction (Rattus norvegicus [1]): 24%
Reduction (Rattus norvegicus [3]): 15%
Reduction (Rattus norvegicus [4]): 22%
Reduction (Rattus norvegicus [5]): 49%

logP [2]: 3.72
Compound: CC(C)(C)c1cc(-c2noc(N)n2)cc(C(C)(C)C)c1O
Reduction (Rattus norvegicus [1]): 89%
Reduction (Rattus norvegicus [3]): 47%
Reduction (Rattus norvegicus [4]): 56%
Reduction (Rattus norvegicus [5]): 103%

Compound: Nc1nc(-c2ccccn2)no1
Reduction (Rattus norvegicus [1]): 8%
Reduction (Rattus norvegicus [3]): 24%
Reduction (Rattus norvegicus [4]): 22%
Reduction (Rattus norvegicus [5]): 66%

logP [2]: 0.52
Compound: Nc1nc(-c2cnccn2)ns1
Reduction (Rattus norvegicus [1]): 6%
Reduction (Rattus norvegicus [3]): 10%
Reduction (Rattus norvegicus [4]): 17%
Reduction (Rattus norvegicus [5]): 24%
